Data taken from publication PMC12648656, “Palladium(II) Complexes with Noncovalent Interactions with DNA: Solution Speciation Controlled by Solvent Identity, pH, and Concentration” (Inorganic Chemistry, 2025).

Assays:
[1] = biological target: T1, hen egg white lysozyme (HEWL) (Gallus gallus, UniProt P00698); set-up: method as in not given; settings: reported under the same conditions; ref not given; cited from earlier work
T1 construct: a model protein, namely HEWL (hen egg white lysozyme), was also studied; from tissue; host or cells: hen egg white (from the protein's name)
T1 sequence (P00698 19-147): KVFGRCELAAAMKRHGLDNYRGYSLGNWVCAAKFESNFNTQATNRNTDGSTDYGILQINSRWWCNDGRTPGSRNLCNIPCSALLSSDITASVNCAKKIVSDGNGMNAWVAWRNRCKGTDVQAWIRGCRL

[2] = system: MCF7 human breast cancer cell line; set-up: method as in marks after cisplatin lost in b83 (probably 43, 44); settings: MCF7, 72 h exposure; ref marks after cisplatin lost in b83 (probably 43, 44); cited from earlier work
[3] = system: Colo 205 human colon cancer cell line; set-up: method as in marks after cisplatin lost in b83 (probably 43, 44); settings: Colo 205, 72 h exposure; ref marks after cisplatin lost in b83 (probably 43, 44); cited from earlier work
[4] = system: pBR322 plasmid DNA; assay: Agarose gel electrophoresis mobility shift; format: binding; settings: r i 0.01 to 0.20, 24 h, 37 °C
Experimental: Complexes (2) and (3) were incubated at 37 °C with a concentration of 0.0625 μg/μL pBR322 plasmid DNA at different concentrations expressed as r i = complex:DNA (base pair) ratio. The r i used was from 0.01 to 0.20, in a total volume of 20 μL. After an incubation period of 24 h, the mobility of the complex-treated pBR322 samples was analyzed by gel electrophoresis at 70 V in Tris/acetate/EDTA buffer. A control of pBR322 was also incubated, and a 1 kb ladder aliquot was loaded into lane 1 of the gel. The gel was stained with an ethidium bromide aqueous solution, and DNA bands were visualized with a UV-transilluminator UVITEC Cambridge UVIDOC HD2 instrument. The studies were performed with 3% (v/v) DMSO as the final solution.

[5] = system: calf thymus-DNA (CT-DNA); assay: Viscometry with CT-DNA; format: binding; settings: compound/DNA ratios 0.0 to 1.0; 5 mM Tris, 100 mM NaCl, pH 7.40, 25.0 °C
Experimental: […] Then, the samples were incubated at 37 °C and with constant shaking at 300 rpm for 10 min and 1 h. After each incubation, the viscosity was measured at a constant temperature of 25.0 ± 0.2 °C in a vibrational viscometer. The relative viscosity was calculated by taking the mean values of three replicate measurements, and the values were represented by plotting the values of relative viscosity of CT-DNA (η/η0)^1/3 against 1/R.

## N.N.[Cl][Pt][Cl] [Cisplatin]
[1]
  observed rate constant k obs: 1.98 × 10^–4 s^–1
[2]
  IC50: 15 ± 0.01 µM
[3]
  IC50: 23 ± 1 µM
[4]
  effect on electrophoretic mobility of pBR322 (two forms, SC and OC): changes in the mobility of the pBR322 isoforms
[5]
  effect on relative viscosity of CT-DNA: relative viscosity of the solution decreases
